Assay [1] is described as follows: Kcat in bacterium VhM42.
The nature of assay [2]: Km in bacterium VhM42.

Take `CCCCCCCCC(O)CC(C)=O` (configuration not stated): in assay [1], the k cat came to 1.67e-05 s⁻¹. In assay [2], the Km (in general, the concentration of substrate that gives half-maximal velocity) stood at 190 µM.
